Reference: patent publication US20160257651A1, “NOVEL COMPOUND WITH ANTIBACTERIAL ACTIVITY” (priority 2013, published 2016)
≈ marks a conversion by molar mass, not a printed value. Like-named read-outs stand apart in the source and are kept apart here.

Key:
S. aureus MR5867 = assay: MIC against stepwise QRDR mutants; format: cell-based; conditions: Staphylococcus aureus
From the text: (§1) In order to further verify that the action site of the compound J-131CP is gyrA, there were examined antibacterial activities against the MRSA, S. aureus MR5867, and stepwise-mutated strains (one-step mutant strain to three-step mutant strain) of S. aureus MR5867 in which mutation was introduced into QRDR, as well as the MSSA, S. aureus MS5952, and stepwise-mutated strains (one-step mutant strain to three-step mutant strain) of S. aureus MS5952 in which mutation was introduced into QRDR (those strains mentioned above are described in Antimicrob. Agents Chemother., 42(8), pp. 1917-1922, 1998) by the following methods. The strains used for this test example are available from the inventors of the present invention.
(§2) The compound J-131CP and quinolones were prepared in the same manner as that of Test Example 1-1.
(§3) Then, the cell suspension was diluted 500 times with CAMHB mentioned above.
(§4) CAMHB containing each of the compound J-131CP and quinolones at each concentration was added to each well of a 96-well plate in a volume of 50 μL/well, the aforementioned cell suspension diluted 500 times was added to the well in a volume of 50 μL/well, and stationary culture was carried out overnight at 37° C. in the same manner as that of Test Example 1-1.

[1] = system: S. aureus MS5952 two-step mutant; assay: MIC against stepwise QRDR mutants; format: cell-based; conditions: Staphylococcus aureus
From the text: as §1, §2, §3, §4

[2] = system: S. aureus MR5867 three-step mutant; assay: MIC against stepwise QRDR mutants; format: cell-based; conditions: Staphylococcus aureus
From the text: as §1, §2, §3, §4

S. aureus MS5952 = assay: MIC against stepwise QRDR mutants; format: cell-based; conditions: Staphylococcus aureus
From the text: as §1, §2, §3, §4

[3] = system: S. aureus MR5867 two-step mutant; assay: MIC against stepwise QRDR mutants; format: cell-based; conditions: Staphylococcus aureus
From the text: as §1, §2, §3, §4

[4] = system: S. aureus MS5952 three-step mutant; assay: MIC against stepwise QRDR mutants; format: cell-based; conditions: Staphylococcus aureus
From the text: as §1, §2, §3, §4

E. faecalis 36-15747 = assay: MIC against Enterococcus bacteria; format: cell-based; conditions: 3615747, ParC 80Ile
Experimental: (§5) Antibacterial activities of the compound J-131CP against Enterococcus bacteria (Enterococcus faecium and Enterococcus faecalis) were examined by the following methods.
as §2
(§6) Cell suspensions were prepared in the same manner as that of Test Example 1-1 described in the section of measurement of MIC in Test Example 1-1, except that the Enterococcus bacterium strains mentioned in Table 8 were used instead of Staphylococcus aureus, and MICs of the compound J-131CP and quinolones as control were determined for the strains in the same manner as that of Test Example 1-1 described in the section of measurement of MIC in Test Example 1-1. In Table 8, the amino acid substitution mutations in QRDR of the strains are underlined.

E. faecium RPR2 = assay: MIC against Enterococcus bacteria; format: cell-based, Enterococcus faecium
Experimental: as §5, §2, §6

E. faecium NCTC12202 = assay: MIC against Enterococcus bacteria; format: cell-based, Enterococcus faecium; conditions: Enterococcus faecium, NCTC 12202 / VRE
Experimental: as §5, §2, §6

[5] = system: Staphylococcus aureus MW2 (CA-MRSA); assay: MIC, S. aureus categories (Test Example 3); format: cell-based; conditions: strain MW2, CA-MRSA
Experimental: (§7) The antibacterial activities of the compound J-131CP against Staphylococcus aureus strains belonging to the five categories of Staphylococcus aureus, i.e., MSSA, MRSA, community-acquired-infection type MRSA (CA-MRSA), VISA, and VRSA, were investigated.
as §2
(§8) Cell suspensions were prepared in the same manner as that of Test Example 1-1 described in the section of measurement of MIC in Test Example 1-1, except that the strains mentioned in Table 6 were used as Staphylococcus aureus, and MICs of the compound J-131CP and quinolones as the control were determined for the strains in the same manner as that of Test Example 1-1. In Table 6, the amino acid substitution mutations in QRDR of the strains are underlined.

[6] = system: Staphylococcus aureus BR2 (VISA); assay: MIC, S. aureus categories (Test Example 3); format: cell-based
Experimental: as §7, §2, §8

[7] = system: Staphylococcus aureus VRS3a (VRSA); assay: MIC, S. aureus categories (Test Example 3); format: cell-based
Experimental: as §7, §2, §8

[8] = system: Staphylococcus aureus VRS1 (VRSA); assay: MIC, S. aureus categories (Test Example 3); format: cell-based
Experimental: as §7, §2, §8

[9] = system: Staphylococcus aureus USA300FPR (CA-MRSA); assay: MIC, S. aureus categories (Test Example 3); format: cell-based
Experimental: as §7, §2, §8

[10] = system: Staphylococcus aureus ATCC29213 (MSSA); assay: MIC, S. aureus categories (Test Example 3); format: cell-based; conditions: strain ATCC29213, MSSA
Experimental: as §7, §2, §8

[11] = system: Staphylococcus aureus KSA36 (MRSA); assay: MIC, S. aureus categories (Test Example 3); format: cell-based
Experimental: as §7, §2, §8

[12] = system: Staphylococcus aureus NCTC8325 (MSSA); assay: MIC, S. aureus categories (Test Example 3); format: cell-based; conditions: strain NCTC8325, MSSA
Experimental: as §7, §2, §8

[13] = system: Staphylococcus aureus MI (VISA); assay: MIC, S. aureus categories (Test Example 3); format: cell-based
Experimental: as §7, §2, §8

[14] = system: Staphylococcus aureus VRS5 (VRSA); assay: MIC, S. aureus categories (Test Example 3); format: cell-based
Experimental: as §7, §2, §8

[15] = system: S. aureus FDA209P (ATCC 6538P); assay: microbe, parasite or virus in culture; format: cell-based, Staphylococcus aureus; conditions: Staphylococcus aureus, ATCC 6538P / FDA209P / MSSA, quinolone-susceptible MSSA, ParC 80S, GyrA 84S, read-out: MIC
Experimental: as §3

S. aureus Mu50 = assay: microbe, parasite or virus in culture; format: cell-based, Staphylococcus aureus; conditions: for MIC ratio (Mu50 MIC/FDA209P MIC): MIC for S. aureus Mu50 / MIC for S. aureus FDA209P; for MIC: S. aureus Mu50, quinolone-resistant MRSA, ParC S80F, GyrA S84L
Experimental: as §3

[16] = system: S. aureus MS5952 one-step mutant; assay: MIC against stepwise QRDR mutants; format: cell-based; conditions: Staphylococcus aureus
Experimental: (§9) The strains used for this test example are available from the inventors of the present invention.
as §3

[17] = system: S. aureus MR5867 one-step mutant; assay: MIC against stepwise QRDR mutants; format: cell-based; conditions: Staphylococcus aureus
Experimental: as §9, §3

S. aureus Mu50 NR1-1 = assay: microbe, parasite or virus in culture; format: cell-based; conditions: Staphylococcus aureus, MU50NR11
Experimental: as §3

E. faecalis NCTC12201 = assay: MIC against Enterococcus bacteria; format: cell-based; conditions: Enterococcus faecalis, NCTC 12201 / VRE, quinolone-susceptible
Experimental: as §5, §2, §6

[18] = E. faecium NCTC12202, VRE, quinolone-susceptible, read-out: MIC
[19] = Staphylococcus aureus, read-out: MIC

Compound | MIC (S. aureus MR5867) | MIC [1] | MIC [2] | MIC (S. aureus MS5952) | MIC [3] | MIC [4] | MIC (E. faecalis 36-15747) | MIC (E. faecium RPR2; Enterococcus faecium, RPR2) | MIC (E. faecium NCTC12202; [18]) | MIC [6] | MIC [7] | MIC [8] | MIC [9] | MIC ([10]; read-out: MIC) | MIC [11] | MIC [12, 19] | MIC [13] | MIC [14] | MIC [15] | MIC ratio (Mu50 MIC/FDA209P MIC) (S. aureus Mu50) | other results
O=C(O)c1cn(C2CC2)c2cc(N3CCNCC3)c(F)cc2c1=O [CIP, ciprofloxacin] | 0.25 µg/mL (≈ 0.754 µM) | 8 µg/mL (≈ 24.1 µM) | 128 µg/mL (≈ 386 µM) | 0.25 µg/mL (≈ 0.754 µM) | 32 µg/mL (≈ 96.6 µM) | 64 µg/mL (≈ 193 µM) | 2 µg/mL (≈ 6.04 µM) | > 128 µg/mL | 0.5 µg/mL (≈ 1.51 µM) | 4 µg/mL (≈ 12.1 µM) | 64 µg/mL (≈ 193 µM) | 128 µg/mL (≈ 386 µM) | 16 µg/mL (≈ 48.3 µM) | 0.25 µg/mL (≈ 0.754 µM) | 128 µg/mL (≈ 386 µM) | 0.25 µg/mL (≈ 0.754 µM) | 16 µg/mL (≈ 48.3 µM) | > 128 µg/mL |  |  | MIC [5, 19]: 0.25 µg/mL (≈ 0.754 µM)
O=c1cc(CO)c2cc(F)c(-c3ccc(O)cc3)cc2n1C1CC1 [J-131CP, 1-cyclopropyl-6-fluoro-4-(hydroxymethyl)-7-(4-hydroxyphenyl)-1,2-dihydroquinolin-2-one] | 0.25 µg/mL (≈ 0.768 µM) | 0.125 µg/mL (≈ 0.384 µM) | ≤ 0.06 µg/mL | 0.25 µg/mL (≈ 0.768 µM) | > 0.06 µg/mL | 0.125 µg/mL (≈ 0.384 µM) | 0.5 µg/mL (≈ 1.54 µM) | 4 µg/mL (≈ 12.3 µM) |  | ≤ 0.06 µg/mL | ≤ 0.06 µg/mL | ≤ 0.06 µg/mL | ≤ 0.06 µg/mL | 0.25 µg/mL (≈ 0.768 µM) | ≤ 0.06 µg/mL |  | ≤ 0.06 µg/mL | ≤ 0.06 µg/mL | 0.25 µg/mL (≈ 0.768 µM) | ≦0.25 | MIC (S. aureus Mu50; Staphylococcus aureus, MRSA): ≤ 0.06 µg/mL; MIC [16]: 0.25 µg/mL (≈ 0.768 µM); MIC [17]: 0.25 µg/mL (≈ 0.768 µM); MIC (S. aureus Mu50 NR1-1): 0.25 µg/mL (≈ 0.768 µM); MIC (E. faecalis NCTC12201): 0.5 µg/mL (≈ 1.54 µM); MIC (E. faecium NCTC12202): 8 µg/mL (≈ 24.6 µM); MIC ([5]; Staphylococcus aureus, MRSA): 0.125 to 0.25 µg/mL (≈ 0.384 to 0.768 µM); MIC [5]: 0.125 µg/mL (≈ 0.384 µM); MIC [10]: 0.125 to 0.25 µg/mL (≈ 0.384 to 0.768 µM); MIC ([12]; Staphylococcus aureus): 0.125 to 0.25 µg/mL (≈ 0.384 to 0.768 µM); MIC [12]: 0.125 µg/mL (≈ 0.384 µM)
C[C@H]1COc2c(N3CCN(C)CC3)c(F)cc3c(=O)c(C(=O)O)cn1c23 [LVX, levofloxacin] | 0.125 µg/mL (≈ 0.346 µM) | 4 µg/mL (≈ 11.1 µM) | 16 µg/mL (≈ 44.3 µM) | 0.25 µg/mL (≈ 0.692 µM) | 8 µg/mL (≈ 22.1 µM) | 32 µg/mL (≈ 88.6 µM) | 2 µg/mL (≈ 5.53 µM) | > 128 µg/mL | 1 µg/mL (≈ 2.77 µM) | 8 µg/mL (≈ 22.1 µM) | 16 µg/mL (≈ 44.3 µM) | 16 µg/mL (≈ 44.3 µM) | 4 µg/mL (≈ 11.1 µM) |  | > 128 µg/mL | 0.25 µg/mL (≈ 0.692 µM) | 32 µg/mL (≈ 88.6 µM) | > 128 µg/mL | ≤ 0.06 µg/mL | ≧128 | MIC (S. aureus Mu50): 8 µg/mL (≈ 22.1 µM); MIC (S. aureus Mu50; Staphylococcus aureus, MRSA): 8 to 128 µg/mL (≈ 22.1 to 354 µM); MIC [16]: 0.5 µg/mL (≈ 1.38 µM); MIC [17]: 1 µg/mL (≈ 2.77 µM); MIC (S. aureus Mu50 NR1-1): 1 µg/mL (≈ 2.77 µM); MIC (E. faecalis NCTC12201; read-out: MIC): 1 µg/mL (≈ 2.77 µM); MIC (E. faecium RPR2; E. faecium RPR2, quinolone-resistant, ParC 82Ile, GyrA 84Ile 88Lys): >128 µg/mL; MIC ([5]; Staphylococcus aureus, MRSA): 0.125 µg/mL (≈ 0.346 µM); MIC [10]: 0.125 µg/mL (≈ 0.346 µM)
